Values of other authors in patent US20250049817A1, “JAK INHIBITOR WITH A VITAMIN D ANALOG FOR TREATMENT OF SKIN DISEASES” (INCYTE CORPORATION, priority 2020, published 2025).
pIC50: −log10 of the molar value.

Experiments:
[1] = tested on: T cells in psoriasis lesions; conditions: psoriasis patients, topical treatment, skin biopsies; cited from earlier work
keratinocyte cell line = conditions: concentration-dependent; read-out: IC50 for decreasing keratinocyte cell line proliferation; cited from earlier work

C=C1/C(=C\C=C2/CCC[C@]3(C)[C@@H]([C@H](C)/C=C/[C@@H](O)C4CC4)CC[C@@H]23)C[C@@H](O)C[C@@H]1O [calcipotriol]
CD8(+) IL-17(+) T cells [1]: significant decrease | frequency of IL-22(+) or IFN-γ(+) cells in psoriasis lesions [1]: no changes | pIC50 (keratinocyte cell line): 7.00 to 8.00
